We go through three compounds from article PMC4660213, “Identification and characterization of multiple rubisco activases in chemoautotrophic bacteria” (Nature Communications, 2015).

Molecules are shown by their SMILES.

Assay type in all cases: biochemical
Test [1] has as its target T1, Q2O2 (Acidithiobacillus ferrooxidans, UniProt B7J5E4, W83L).
T1 construct: gene cbbQ-2; co-expressed His6-ubiquitin fusions cleaved, E. coli, CbbQ6CbbO1 hetero-oligomer, 285 kDa measured
The experiment in a line: coupled ATPase assay (NADH oxidation). Conditions: 25 °C; basal, no rubisco.

The target of the next test is T2, AfQ2 (Acidithiobacillus ferrooxidans, UniProt B7J5E4).
T2 construct: gene cbbQ-2; His6-ubiquitin fusion cleaved to native N terminus, E. coli, homohexamer, 173 kDa measured
The experiment in a line: coupled ATPase assay (NADH oxidation). Conditions: 25 °C; basal, no rubisco.

For test [2], the target named is T3, Q2O2 (Acidithiobacillus ferrooxidans, UniProt B7J5E4, W83F).
T3 construct: gene cbbQ-2; co-expressed His6-ubiquitin fusions cleaved, E. coli, CbbQ6CbbO1 hetero-oligomer, 285 kDa measured
As to the kind of experiment: coupled ATPase assay (NADH oxidation). Conditions: 25 °C; basal, no rubisco.

A further test has as its target T4, AfLS (Acidithiobacillus ferrooxidans, UniProt B7JA24).
T4 construct: gene cbbL2; cbbLS in pET30b, E. coli BL21, ion exchange and gel filtration, L8S8 hexadecamer, predicted 530 kDa; with Ribulose bisphosphate carboxylase small subunit
As to the kind of experiment: spectrophotometric coupled rubisco assay of ECMC complex. Conditions: activated enzyme (ECM) preincubated with fourfold excess of carboxypentitol bisphosphate (1:1 CABP and carboxyribitol isomer); pH 8.0, 25 °C, 20 mM NaHCO3, Mg2+; active site.

Test [3] concerns the target T5, AfM (Acidithiobacillus ferrooxidans, UniProt B7J5E3).
T5 construct: gene cbbL2; His6-ubiquitin fusion cleaved to native N terminus, E. coli BL21 (DE3), hexamer (L6), 313 kDa measured
The test is described as above. Conditions: activated enzyme (ECM) preincubated with fourfold excess of carboxypentitol bisphosphate (1:1 CABP and carboxyribitol isomer); pH 8.0, 25 °C, 20 mM NaHCO3, Mg2+; active site but 5 mM NaHCO3.

The target of test [4] is T5, AfM. The experiment in a line: spectrophotometric coupled rubisco assay. The note with it: pH 8.0, 25 °C, 1 mM RuBP, 5 mM NaHCO3, 5 mM MgCl2; substrate of ECM, also inhibits the apoenzyme (loose ER complex).

T5 sequence (B7J5E3 entry or part of it): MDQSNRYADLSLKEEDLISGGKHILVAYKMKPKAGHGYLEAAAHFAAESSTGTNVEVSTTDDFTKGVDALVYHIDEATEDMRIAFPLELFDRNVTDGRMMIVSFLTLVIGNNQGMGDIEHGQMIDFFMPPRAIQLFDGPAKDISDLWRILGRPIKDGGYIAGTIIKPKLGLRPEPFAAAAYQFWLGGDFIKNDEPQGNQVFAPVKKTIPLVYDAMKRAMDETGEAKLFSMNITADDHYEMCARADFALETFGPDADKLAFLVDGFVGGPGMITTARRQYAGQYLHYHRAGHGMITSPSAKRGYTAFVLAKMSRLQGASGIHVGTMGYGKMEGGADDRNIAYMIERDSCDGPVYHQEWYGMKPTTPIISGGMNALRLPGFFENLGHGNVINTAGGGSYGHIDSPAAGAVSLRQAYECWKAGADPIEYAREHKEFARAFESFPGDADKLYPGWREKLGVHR
T1 sequence (B7J5E4 entry or part of it W83L): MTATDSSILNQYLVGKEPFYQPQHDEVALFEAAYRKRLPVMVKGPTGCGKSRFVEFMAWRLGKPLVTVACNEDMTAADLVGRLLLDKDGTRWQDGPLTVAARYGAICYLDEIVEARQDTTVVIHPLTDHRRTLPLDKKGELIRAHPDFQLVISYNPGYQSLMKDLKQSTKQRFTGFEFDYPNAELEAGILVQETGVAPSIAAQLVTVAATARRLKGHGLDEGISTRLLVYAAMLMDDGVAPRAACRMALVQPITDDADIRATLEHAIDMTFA
T1 sequence (B7J5E5 entry or part of it, stated change not applied, further chain): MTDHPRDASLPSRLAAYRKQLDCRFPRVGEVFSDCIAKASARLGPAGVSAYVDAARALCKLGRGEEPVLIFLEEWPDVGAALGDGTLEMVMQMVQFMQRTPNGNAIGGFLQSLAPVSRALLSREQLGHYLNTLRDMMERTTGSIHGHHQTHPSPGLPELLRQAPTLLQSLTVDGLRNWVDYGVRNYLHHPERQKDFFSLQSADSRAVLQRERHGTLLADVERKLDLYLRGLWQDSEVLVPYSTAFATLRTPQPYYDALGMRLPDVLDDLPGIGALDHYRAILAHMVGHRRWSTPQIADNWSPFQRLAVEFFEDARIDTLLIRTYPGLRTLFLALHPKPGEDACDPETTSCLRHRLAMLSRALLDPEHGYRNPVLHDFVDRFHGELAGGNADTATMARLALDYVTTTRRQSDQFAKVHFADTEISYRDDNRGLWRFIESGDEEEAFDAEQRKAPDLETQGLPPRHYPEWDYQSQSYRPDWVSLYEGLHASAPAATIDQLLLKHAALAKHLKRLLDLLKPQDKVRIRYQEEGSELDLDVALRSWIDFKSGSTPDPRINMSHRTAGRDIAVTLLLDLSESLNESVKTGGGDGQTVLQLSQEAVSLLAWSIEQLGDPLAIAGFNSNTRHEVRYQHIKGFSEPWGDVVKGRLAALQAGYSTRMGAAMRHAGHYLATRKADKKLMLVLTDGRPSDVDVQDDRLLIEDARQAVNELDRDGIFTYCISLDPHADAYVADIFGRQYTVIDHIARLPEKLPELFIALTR
T4 sequence (B7JA24 whole entry): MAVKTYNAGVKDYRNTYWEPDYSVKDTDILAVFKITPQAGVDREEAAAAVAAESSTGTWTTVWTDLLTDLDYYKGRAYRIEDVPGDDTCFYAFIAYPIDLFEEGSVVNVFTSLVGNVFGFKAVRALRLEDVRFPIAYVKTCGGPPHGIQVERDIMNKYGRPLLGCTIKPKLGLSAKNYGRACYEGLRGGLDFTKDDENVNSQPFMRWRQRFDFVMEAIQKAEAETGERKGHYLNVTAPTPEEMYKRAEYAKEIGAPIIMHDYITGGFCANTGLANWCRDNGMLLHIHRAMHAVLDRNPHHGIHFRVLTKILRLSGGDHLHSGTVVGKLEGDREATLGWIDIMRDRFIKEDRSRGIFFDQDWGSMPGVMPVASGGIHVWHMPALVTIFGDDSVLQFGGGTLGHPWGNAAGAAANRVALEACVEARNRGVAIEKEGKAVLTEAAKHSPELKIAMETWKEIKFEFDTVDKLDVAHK
T4 sequence (B7JA25 1-118 partner): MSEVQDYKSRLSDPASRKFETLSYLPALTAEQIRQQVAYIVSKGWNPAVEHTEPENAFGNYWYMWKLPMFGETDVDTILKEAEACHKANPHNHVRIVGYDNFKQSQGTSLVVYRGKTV
T3 sequence (B7J5E4 entry or part of it W83F): as the sequence (B7J5E4 entry or part of it W83L) above, with L83F counted along it
T3 sequence (B7J5E5 entry or part of it, stated change not applied, further chain): as the sequence (B7J5E5 entry or part of it, stated change not applied, further chain) above
T2 sequence (B7J5E4 entry or part of it): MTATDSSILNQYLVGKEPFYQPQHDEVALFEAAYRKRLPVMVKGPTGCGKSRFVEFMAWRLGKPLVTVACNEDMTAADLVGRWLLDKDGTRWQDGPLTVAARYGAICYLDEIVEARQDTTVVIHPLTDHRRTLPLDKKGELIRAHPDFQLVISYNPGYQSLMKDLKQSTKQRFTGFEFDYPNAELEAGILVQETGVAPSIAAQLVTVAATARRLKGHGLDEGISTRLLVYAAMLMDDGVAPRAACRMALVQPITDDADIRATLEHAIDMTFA

Turning to `Nc1ncnc2c1ncn2[C@@H]1O[C@H](COP(=O)(O)OP(=O)(O)OP(=O)(O)O)[C@@H](O)[C@H]1O` [ATP], the “coupled ATPase assay (NADH oxidation)” value is “The W83L and W83F mutants displayed three and twofold increased basal ATPase activities” at Q2O2 [1]; “Both AfQ2 and Q2O2ΔC444 displayed a low ATPase activity” at AfQ2; “The W83L and W83F mutants displayed three and twofold increased basal ATPase activities” at Q2O2 [2].
Take `O=C(O)[C@@](O)(COP(=O)(O)O)[C@H](O)[C@H](O)COP(=O)(O)O` (mixture of isomers) [CABP, carboxyarabinitol-1,5-bisphosphate]: the “spectrophotometric coupled rubisco assay of ECMC complex” value on AfLS is “the form I (AfLS) ER and ECMC complexes were inactive”; at AfM [3] it was “AfM bound to the transition state analogue CABP (ECMC) formed stable and inactive complexes”.
Turning to `O=C(COP(=O)(O)O)[C@H](O)[C@H](O)COP(=O)(O)O` [RuBP, ribulose-1,5-bisphosphate], the “spectrophotometric coupled rubisco assay” value at AfM [4] was “the activities of both AfM ECM and ER rapidly converged to a low rate”.
